# Target: T1, Tyrosine-protein phosphatase non-receptor type 11 (Homo sapiens, UniProt Q06124)
# T1 sequence (Q06124 whole entry): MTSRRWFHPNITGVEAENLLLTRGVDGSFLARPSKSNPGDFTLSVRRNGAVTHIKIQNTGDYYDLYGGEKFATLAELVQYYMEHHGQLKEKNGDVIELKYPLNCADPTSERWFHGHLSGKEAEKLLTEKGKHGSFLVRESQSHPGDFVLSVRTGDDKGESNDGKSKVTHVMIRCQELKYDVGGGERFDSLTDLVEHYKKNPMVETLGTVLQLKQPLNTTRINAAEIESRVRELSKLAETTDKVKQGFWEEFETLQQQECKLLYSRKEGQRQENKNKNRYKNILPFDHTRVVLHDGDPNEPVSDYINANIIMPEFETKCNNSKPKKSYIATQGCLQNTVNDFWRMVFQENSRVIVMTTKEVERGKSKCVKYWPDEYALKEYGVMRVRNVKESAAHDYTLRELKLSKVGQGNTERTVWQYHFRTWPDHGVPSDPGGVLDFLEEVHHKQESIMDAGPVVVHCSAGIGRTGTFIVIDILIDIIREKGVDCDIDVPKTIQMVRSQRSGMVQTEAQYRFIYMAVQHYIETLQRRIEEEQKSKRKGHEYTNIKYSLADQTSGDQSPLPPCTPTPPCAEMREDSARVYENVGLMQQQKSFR
# Assay: Inhibition of SHP2 Phosphatase Activity Assay
# Method: Inhibition of SHP2 phosphatase activity was evaluated using human recombinant 6His-Nterm (SEQ ID NO: 1) SHP2 full-length (Thr2-Arg593, R&D system), NsCs bi-phosphorylated activating peptide (NH2-LN(pY)AQLWHA(PEG8)LTI(pY)ATIRRF-Amide.acetate (SEQ ID NO: 2), Thermofischer Scientific) and DiFMUP as surrogate phosphatase substrate (Molecular Probes). All reactions were performed at room temperature in 384-well black polystyrene non-binding plate (Corning) with the assay buffer (50 mM HEPES-NaOH pH 7.2, 100 mM NaCl, 0.5 mM EDTA, 0.001% Brij35 including 0.02% BSA and 1 mM DTT added extemporaneously). SHP2 was pre-incubated at least 10 min with the activating peptide (0.2 nM and 100 nM, respectively). 10 μL of this mixture was added to the assay plate, that already contained 15 nL of the compound (1000-0.05 nM). After 30 min pre-incubation, the enzymatic reaction was initiated by the addition of 5 μL DiFMUP in assay buffer without BSA (20 μM). The reaction was stopped by the addition of 15 μL sodium pervanadate solution (100 μM) after 45 min incubation. The fluorescence signal was measured at excitation and emission wavelengths of 350 nm and 450 nm, respectively, using a Pherastar instrument (BMG-LabTech).
row,Structure (SMILES),IC50 [nM]
1,"Cc1nc(N2CCC3(CC2)Cc2scnc2[C@H]3N)c2ccnn2c1-c1cnn(C)c1C [US20250282782, Compound 67]",115
2,"Cc1nc(N2CCC3(CC2)Cc2scnc2[C@H]3N)c2ccnn2c1-c1ccccc1F [US20250282782, Compound 66]",22
3,"Cc1nc(N2CCC3(CC2)Cc2ncccc2[C@H]3N)c2ccnn2c1-c1cc2c(cc1F)OCCO2 [US20250282782, Compound 58]",35
4,"Cc1nc(N2CCC3(CC2)Cc2ncsc2[C@H]3N)c2ccnn2c1-c1cnn(C)c1C [US20250282782, Compound 72]",27
5,"Cc1ccc(F)c(-c2c(C)nc(N3CCC4(CC3)Cc3ncccc3[C@H]4N)c3ccnn23)c1 [US20250282782, Compound 205]",11
6,"Cc1cc2c(cn1)CC1(CCN(c3nc(C)c(-c4cnn(C)c4C)n4nccc34)CC1)[C@@H]2N [US20250282782, Compound 113]",28

# Source: BindingDB's records for patent US20250282782 (Genzyme, 2025)
